Assay results reported in patent US9556200B2, “Tricyclic compound” (TAKEDA PHARMACEUTICAL COMPANY LIMITED, priority 2012, dated 2017).
Structures can show the parent of a compound that is named as a salt.

Molecular target: serotonin 5-HT2C receptor (VSV type isoform, stably expressed in CHO cells) (Homo sapiens, UniProt P28335, I156V/I160V/N158S)
Test: cell-based
Conditions: read-out: ratio (%) relative to maximum response by 5-HT (10 μM)

Chain of serotonin 5-HT2C receptor (VSV type isoform, stably expressed in CHO cells) (P28335 33-458 I156V/N158S/I160V limits assumed): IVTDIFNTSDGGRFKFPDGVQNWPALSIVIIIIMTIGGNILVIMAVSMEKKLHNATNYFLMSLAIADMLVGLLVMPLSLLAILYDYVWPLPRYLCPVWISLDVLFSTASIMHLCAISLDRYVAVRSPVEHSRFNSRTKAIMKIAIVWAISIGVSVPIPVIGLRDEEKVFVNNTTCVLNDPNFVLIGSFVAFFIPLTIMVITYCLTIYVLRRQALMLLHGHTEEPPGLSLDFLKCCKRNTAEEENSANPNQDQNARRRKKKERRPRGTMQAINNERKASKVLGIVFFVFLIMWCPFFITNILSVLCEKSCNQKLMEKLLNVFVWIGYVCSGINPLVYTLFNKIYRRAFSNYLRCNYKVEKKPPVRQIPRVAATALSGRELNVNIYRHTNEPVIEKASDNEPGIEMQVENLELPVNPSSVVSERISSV

Compound: c1cc2c3c(c[nH]c3c1)CNCC2 [Example 1, 3,4,5,6-tetrahydro-1H-azepino[3,4,5-cd]indole hydrochloride]
- Emax: 104%

Compound: c1cc2c3c(c1)NCC3CNCC2 (centres unmarked) [Example 2, 2,2a,3,4,5,6-hexahydro-1H-azepino[3,4,5-cd]indole dihydrochloride]
- Emax: 107%

Compound: Cn1cc2c3c(cccc31)CCNC2 [Example 3, 1-methyl-3,4,5,6-tetrahydro-1H-azepino[3,4,5-cd]indole]
- Emax: 106%

Compound: CN1CC2CNCCc3cccc1c32 (centres unmarked) [Example 4, 1-methyl-2,2a,3,4,5,6-hexahydro-1H-azepino[3,4,5-cd]indole hydrochloride]
- Emax: 100%

Compound: CN1CC2CNCCc3ccc(Cl)c1c32 (centres unmarked) [Example 5, 9-chloro-1-methyl-2,2a,3,4,5,6-hexahydro-1H-azepino[3,4,5-cd]indole hydrochloride]
- Emax: 108%

Compound: CN1CC2CNCCc3c(Cl)ccc1c32 (centres unmarked) [Example 6, 7-chloro-1-methyl-2,2a,3,4,5,6-hexahydro-1H-azepino[3,4,5-cd]indole hydrochloride]
- Emax: 98%

Compound: CN1CC2CNCCc3c(Cl)cc(Cl)c1c32 (centres unmarked) [Example 7, 7,9-dichloro-1-methyl-2,2a,3,4,5,6-hexahydro-1H-azepino[3,4,5-cd]indole]
- Emax: 97%

Compound: CN1C[C@H]2CNCCc3ccc(Cl)c1c32 [Example 8, (2aR)-9-chloro-1-methyl-2,2a,3,4,5,6-hexahydro-1H-azepino[3,4,5-cd]indole hydrochloride]
- Emax: 105%

Compound: CN1C[C@@H]2CNCCc3ccc(Cl)c1c32 [Example 9, (2aS)-9-chloro-1-methyl-2,2a,3,4,5,6-hexahydro-1H-azepino[3,4,5-cd]indole hydrochloride]
- Emax: 109%

Compound: Cc1ccc2c3c1N(C)CC3CNCC2 (centres unmarked) [Example 10, 1,9-dimethyl-2,2a,3,4,5,6-hexahydro-1H-azepino[3,4,5-cd]indole hydrochloride]
- Emax: 100%

Compound: Cc1ccc2c3c1N(C)C[C@@H]3CNCC2 [Example 11, (2aS)-1,9-dimethyl-2,2a,3,4,5,6-hexahydro-1H-azepino[3,4,5-cd]indole 0.5 sulfate]
- Emax: 102%

Compound: Cc1ccc2c3c1N(C)C[C@H]3CNCC2 [Example 12, (2aR)-1,9-dimethyl-2,2a,3,4,5,6-hexahydro-1H-azepino[3,4,5-cd]indole 0.5 sulfate]
- Emax: 102%

Compound: CN1CC2CNCCc3c(Br)ccc1c32 (centres unmarked) [Example 13, 7-bromo-1-methyl-2,2a,3,4,5,6-hexahydro-1H-azepino[3,4,5-cd]indole hydrochloride]
- Emax: 81%

Compound: CN1CC2CNCCc3c(Br)cc(Br)c1c32 (centres unmarked) [Example 14, 7,9-dibromo-1-methyl-2,2a,3,4,5,6-hexahydro-1H-azepino[3,4,5-cd]indole hydrochloride]
- Emax at 10 µM: 87%

Compound: CC(C)N1CC2CNCCc3cccc1c32 (centres unmarked) [Example 15, 1-isopropyl-2,2a,3,4,5,6-hexahydro-1H-azepino[3,4,5-cd]indole hydrochloride]
- Emax: 98%

Compound: CC(C)N1CC2CNCCc3ccc(Cl)c1c32 (centres unmarked) [Example 16, 9-chloro-1-isopropyl-2,2a,3,4,5,6-hexahydro-1H-azepino[3,4,5-cd]indole hydrochloride]
- Emax: 101%

Compound: CC(C)N1C[C@@H]2CNCCc3ccc(Cl)c1c32 [Example 17, (2aS)-9-chloro-1-isopropyl-2,2a,3,4,5,6-hexahydro-1H-azepino[3,4,5-cd]indole hydrochloride]
- Emax: 99%

Compound: CC(C)N1C[C@H]2CNCCc3ccc(Cl)c1c32 [Example 18, (2aR)-9-chloro-1-isopropyl-2,2a,3,4,5,6-hexahydro-1H-azepino[3,4,5-cd]indole hydrochloride]
- Emax: 105%

Compound: c1ccc(CN2CC3CNCCc4cccc2c43)cc1 (centres unmarked) [Example 19, 1-benzyl-2,2a,3,4,5,6-hexahydro-1H-azepino[3,4,5-cd]indole hydrochloride]
- Emax: 96%

Compound: CC(=O)N1CC2CNCCc3cccc1c32 (centres unmarked) [Example 20, 1-(2,2a,3,4,5,6-hexahydro-1H-azepino[3,4,5-cd]indol-1-yl)ethanone hydrochloride]
- Emax: 94%

Compound: CC(=O)N1CC2CNCCc3ccc(Cl)c1c32 (centres unmarked) [Example 21, 1-(9-chloro-2,2a,3,4,5,6-hexahydro-1H-azepino[3,4,5-cd]indol-1-yl)ethanone hydrochloride]
- Emax: 109%

Compound: CC(=O)N1CC2CNCCc3c(Cl)ccc1c32 (centres unmarked) [Example 22, 1-(7-chloro-2,2a,3,4,5,6-hexahydro-1H-azepino[3,4,5-cd]indol-1-yl)ethanone hydrochloride]
- Emax: 105%

Compound: CC(=O)N1CC2CNCCc3c(Cl)cc(Cl)c1c32 (centres unmarked) [Example 23, 1-(7,9-dichloro-2,2a,3,4,5,6-hexahydro-1H-azepino[3,4,5-cd]indol-1-yl)ethanone]
- Emax: 100%

Compound: CC(=O)N1C[C@@H]2CNCCc3ccc(Cl)c1c32 [Example 24, 1-((2aS)-9-chloro-2,2a,3,4,5,6-hexahydro-1H-azepino[3,4,5-cd]indol-1-yl)ethanone hydrochloride]
- Emax: 96%

Compound: CC(=O)N1C[C@H]2CNCCc3ccc(Cl)c1c32 [Example 25, 1-((2aR)-9-chloro-2,2a,3,4,5,6-hexahydro-1H-azepino[3,4,5-cd]indol-1-yl)ethanone hydrochloride]
- Emax: 96%

Compound: Clc1ccc2c3c1NCC3CNCC2 (centres unmarked) [Example 26, 9-chloro-2,2a,3,4,5,6-hexahydro-1H-azepino[3,4,5-cd]indole]
- Emax: 98%

Compound: CCN1C[C@@H]2CNCCc3ccc(Cl)c1c32 [Example 29, (2aS)-9-chloro-1-ethyl-2,2a,3,4,5,6-hexahydro-1H-azepino[3,4,5-cd]indole hydrochloride]
- Emax: 93%

Compound: Clc1ccc2c3c1N(C1CC1)C[C@@H]3CNCC2 [Example 30, (2aS)-9-chloro-1-cyclopropyl-2,2a,3,4,5,6-hexahydro-1H-azepino[3,4,5-cd]indole]
- Emax: 94%

Compound: c1cc2c3c(coc3c1)CNCC2 [Example 31, 3,4,5,6-tetrahydrofuro[4,3,2-ef][3]benzazepine hydrochloride]
- Emax: 85%

Compound: c1cc2c3c(c1)OCC3CNCC2 (centres unmarked) [Example 32, 2,2a,3,4,5,6-hexahydrofuro[4,3,2-ef][3]benzazepine hydrochloride]
- Emax: 97%

Compound: Clc1ccc2c3c1OCC3CNCC2 (centres unmarked) [Example 33, 9-chloro-2,2a,3,4,5,6-hexahydrofuro[4,3,2-ef][3]benzazepine hydrochloride]
- Emax: 94%

Compound: CC(C)C(=O)N1CC2CNCCc3cccc1c32 (centres unmarked) [Example 34, 1-(2,2a,3,4,5,6-hexahydro-1H-azepino[3,4,5-cd]indol-1-yl)-2-methylpropan-1-one hydrochloride]
- Emax: 77%

Compound: CC(C)C(=O)N1CC2CNCCc3c(Cl)ccc1c32 (centres unmarked) [Example 35, 1-(7-chloro-2,2a,3,4,5,6-hexahydro-1H-azepino[3,4,5-cd]indol-1-yl)-2-methylpropan-1-one hydrochloride]
- Emax: 99%

Compound: O=C(c1ccccc1)N1CC2CNCCc3cccc1c32 (centres unmarked) [Example 36, 2,2a,3,4,5,6-hexahydro-1H-azepino[3,4,5-cd]indol-1-yl(phenyl)methanone hydrochloride]
- Emax: 79%

Compound: O=C(c1ccccc1)N1CC2CNCCc3ccc(Cl)c1c32 (centres unmarked) [Example 37, (9-chloro-2,2a,3,4,5,6-hexahydro-1H-azepino[3,4,5-cd]indol-1-yl)(phenyl)methanone hydrochloride]
- Emax: 95%

Compound: O=C(c1ccccc1)N1CC2CNCCc3c(Cl)ccc1c32 (centres unmarked) [Example 38, (7-chloro-2,2a,3,4,5,6-hexahydro-1H-azepino[3,4,5-cd]indol-1-yl)(phenyl)methanone hydrochloride]
- Emax: 93%

Compound: O=C(c1ccccc1)N1CC2CNCCc3c(Cl)cc(Cl)c1c32 (centres unmarked) [Example 39, 7,9-dichloro-1-(phenylcarbonyl)-2,2a,3,4,5,6-hexahydro-1H-azepino[3,4,5-cd]indole hydrochloride]
- Emax: 93%

Compound: CC(C)c1ccc2c3c1N(C)CC3CNCC2 (centres unmarked) [Example 40, 9-isopropyl-1-methyl-2,2a,3,4,5,6-hexahydro-1H-azepino[3,4,5-cd]indole]
- Emax: 93%

Compound: c1cc2c3c(csc3c1)CNCC2 [Example 41, 3,4,5,6-tetrahydrothieno[4,3,2-ef][3]benzazepine hydrochloride]
- Emax: 91%

Compound: O=S1(=O)CC2CNCCc3cccc1c32 (centres unmarked) [Example 42, 2,2a,3,4,5,6-hexahydrothieno[4,3,2-ef][3]benzazepine 1,1-dioxide hydrochloride]
- Emax: 102%

Compound: c1cc2c3c(c1)SCC3CNCC2 (centres unmarked) [Example 43, 2,2a,3,4,5,6-hexahydrothieno[4,3,2-ef][3]benzazepine hydrochloride]
- Emax: 107%
